One assay addresses T1, cloned human dopamine D3 receptors (Homo sapiens, UniProt P35462).
T1 construct: expressed in transfected cells; membrane homogenate
The assay is described as follows: [N-Methyl-3H]Spiroperidol binding to cloned human dopamine D3 receptors. As to conditions: D3 Ki (nM). An excerpt: [N-Methyl-^3H]Spiroperidol Binding to Cloned Human Dopamine D3 Receptors
This assay measures the in vitro activity of compounds on cloned human dopamine (D3) receptors and predicts the direct dopamine-blocking properties of putative neuropsychiatric agents at human dopamine D3 receptors.
The D3 gene was isolated from a human striatal cDNA library (Stratagene). The gene was sequenced and sub-cloned into the expression vector RC/RSV (Invitrogen). CHO (Chinese Hamster Ovary) cells were stably transfected with 10 μg of the D3/RSV plasmid using the DOTAP method from Boehringer Mannheim and 72 clones that were G418 resistant were isolated. Using mRNA and binding displacement data a single high expressing clone was identified. This clone was then grown in large batches for the purpose of developing a 96 well format assay.
• 1. One plate (10 cm) with approximately 2-3 million D3 cells per plate is incubated with 1 ml of Trypsin-EDTA at room temperature for ˜2 min or until cells have lifted off plates. Four ml of Ham's F12+10% Fetal Bovine Serum+1% Penicillin/Streptomycin+G418 (400 μg/ml) medium are added to resuspend cells and 1 ml of this is added to each large plate (15 cm) containing 19 ml of the same medium as mentioned above. • 2. The 5 large plates are incubated at 37° C.+5% CO2 for ˜3 days or until the cells are confluent. • 3. After these plates are confluent, they are split into 10 large plates. Medium is aspirated off, 2 ml of Trypsin-EDTA are added to each plate and plates are incubated at RT for 2 min or until cells have lifted off the plate. Eight ml of the F12 medium (same medium as #1 above) are added to each plate (10 ml total) to resuspend the cells and 5 ml are transferred to the 2 new plates containing 15 ml of the F12 media. • 4. The 10 large plates are incubated at 37° C.+5% CO2 for ˜2 days or until the cells are confluent. • 5. The 10 large plates are split into 60 large plates (using Trypsin-EDTA as #3 except 4 ml of F12 medium are added to resuspend cells and 1 ml is aliquoted to 6 new plates containing 19 ml of F12 medium each). • 6. Plates are incubated at 37° C.+5% CO2 for ˜3 days or until cell are confluent. • 7. The 60 large plates are then split into 60 roller bottles (100-150 million cells/bottle). Medium is aspirated off, 2 ml of Trypsin-EDTA are added to each plate and incubated at RT for ˜2 minutes or until cells have lifted off plates. Eight ml of F12 medium are added to each plate to resuspend cells and the entire 10 ml are added to 1 roller bottle containing 90 ml of the F12 medium. • 8. The 60 roller bottles are immediately placed on their sides and transferred to the roller bottle incubator. They are incubated at 37° C.+5% CO2 for ˜3-5 days. Cells are spun at 30-40% motor speed in the Form a incubator. • 9. Medium is poured off and cells are washed 2× in PBS. • 10. Cells are then scraped off in 20 ml of PBS and the bottles are rinsed again with 5 ml of PBS to remove any remaining cells. Cells are stored on ice before membrane preparation. • 11. The yield for 60 D3 roller bottles has varied from ˜260-500 mg. • Note: All tissue culture reagents are from Gibco-BRL. C. Membrane Preparation
The cells are harvested into 250 ml centrifuge tubes with 100 volumes of cold phosphate buffered saline (PBS) and spun down (1200×G for 10 min at 4° C.). The medium is removed and 100 ml PBS are added to each centrifuge tube, cells are resuspened and spun down again. The PBS is removed and the final pellet is homogenized in an appropriate volume of 10% DMSO with a polytron on ice at a medium setting.
A 200 μl sample membrane homogenate is added to 200 μl of 1% SDS, vortexed and allowed to stand for 5 min. Aliquots (25, 50 and 100 μl) of this mixture are assayed in duplicate following the standard Bio-Rad DC protein assay protocol (kit catalog number 500-0112) and using reagent S. Absorbance readings are made at 750 nm (note: the most accurate protein OD readings are between 0.1-0.5 units). […]
T1 sequence (P35462 whole entry): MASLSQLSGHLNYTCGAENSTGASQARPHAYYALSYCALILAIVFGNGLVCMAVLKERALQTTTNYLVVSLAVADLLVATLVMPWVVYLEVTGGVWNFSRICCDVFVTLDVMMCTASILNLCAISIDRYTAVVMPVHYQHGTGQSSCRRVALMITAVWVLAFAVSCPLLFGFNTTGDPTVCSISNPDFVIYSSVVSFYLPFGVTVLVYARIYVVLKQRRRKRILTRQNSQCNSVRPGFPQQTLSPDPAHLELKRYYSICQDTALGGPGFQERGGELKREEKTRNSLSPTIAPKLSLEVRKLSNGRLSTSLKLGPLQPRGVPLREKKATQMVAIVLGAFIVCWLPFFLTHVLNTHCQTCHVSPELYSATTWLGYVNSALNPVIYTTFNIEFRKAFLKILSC
`O=C([C@@H]1C[C@H]1CN1CCC(c2noc3ccsc23)CC1)N1CCC2(CC1)OCCO2` [compound 829466] registered a Ki of 24.8 nM.

The assay is the same for the next values; noted with them: read-out: D3 Ki.
As to `COc1cccc(CCNC(=O)C2CC2CN2CCC(c3noc4ccsc34)CC2)c1` (racemic) [compound 831804], the Ki was found to be 9.89 nM. For `CC1CCC(NC(=O)C2CC2CN2CCN(c3nn(-c4ccccc4F)c4ccccc34)CC2)CC1` (racemic) [compound 830114], the Ki amounted to 5.42 nM.

On to `C[C@H]1CC[C@H](NC(=O)[C@@H]2CC[C@H]2CN2CCCN(c3noc4ccsc34)CC2)CC1` (racemic) [compound 830000], for which the Ki amounted to 286 nM.

As to `COc1ccc2c(c1)c(N1CCN(C[C@@H]3C[C@H]3C(=O)NCCCn3ccnc3)CC1)nn2-c1ccc(C(F)(F)F)cc1` [compound 831313], the Ki amounted to 134 nM. Same read-out and setting: the result for `CN(C)Cc1ccc(CSCCNC(=O)C2CC2CN2CCC(c3noc4ccsc34)CC2)o1` (racemic) [compound 831740] reads 2.96 nM; that for `O=C(NCCCc1nc2ccccc2[nH]1)C1CC1CN1CCC(c2noc3ccsc23)CC1` (racemic) [compound 831622], 34.6 nM; that for `O=C(NC1CCN(Cc2ccc(Cl)cc2)CC1)[C@@H]1C[C@H]1CN1CCC(c2noc3ccsc23)CC1` [compound 832729], 1.67 nM.

With `O=C(NCCc1ccccc1)C1(CCN2CCN(c3csc4cc(C(F)(F)F)ccc34)CC2)CC1` [compound 832519], the Ki came to 97.5 nM. Still for that read-out and setting: with `O=C([C@@H]1C[C@H]1CN1CCN(c2csc3cc(C(F)(F)F)ccc23)CC1)N1CCC[C@H](CN2CCCCC2)C1` [A002438638] the figure was 3.28 nM; with `CN1CCN(CCCNC(=O)[C@@H]2C[C@H]2CN2CCC(c3nsc4cc(Br)ccc34)CC2)CC1` [A002438664], 6.49 nM; with `O=C([C@@H]1C[C@H]1CN1CCN(c2csc3cc(C(F)(F)F)ccc23)CC1)N1CCN(CCOCCO)CC1` [compound 832581], 67.3 nM. Same read-out and setting: with `O=C(NC1CCN(C(=O)c2ccc(Cl)s2)CC1)C1CC1CN1CCC(c2noc3ccsc23)CC1` (racemic) [compound 832487] the figure was 66.1 nM; with `CC(C)(C)OC(=O)N1CCC(NC(=O)[C@@H]2C[C@H]2CN2CCN(c3csc4cc(C(F)(F)F)ccc34)CC2)CC1` [compound 832499], 19.7 nM; with `O=C(NCCc1cccc(C(F)(F)F)c1)[C@@H]1C[C@H]1CN1CCC(c2noc3ccsc23)CC1` [compound 833130], 8.85 nM. `Cc1ccc(S(=O)(=O)n2nc(N3CCN(C[C@@H]4C[C@H]4C(=O)N[C@H]4CC[C@H](O)CC4)CC3)c3sccc32)cc1` [compound 831951]: the Ki was determined as 36.7 nM. Turning to `O=C(NC1CCN(Cc2c(Cl)cccc2Cl)CC1)C1CC1CN1CCC(c2noc3ccsc23)CC1` (racemic) [compound 831821], the Ki was determined as 24.1 nM. Still for that read-out and setting: with `CCN1CCN(C(=O)N2CCC(NC(=O)C3CC3CN3CCC(c4noc5ccsc45)CC3)CC2)C(=O)C1=O` (racemic) [compound 832489] the figure was 95 nM; with `CC(C)(C)OC(=O)N1CC[C@@H](CNC(=O)[C@@H]2C[C@H]2CN2CCC(c3noc4ccsc34)CC2)C1` [compound 833373], 65.5 nM; with `CC1CCC(NC(=O)C2CC2CN2CCN(c3n[nH]c4cc(Cl)ccc34)CC2)CC1` (racemic) [compound 830124], 1.84 nM.

In the case of `O=C(C1CC1CN1CCC(c2noc3ccsc23)CC1)N1CCN(S(=O)(=O)C=Cc2ccccc2)CC1` (racemic) [compound 831838], the Ki was found to be 141 nM. With `O=C(C1CC1CN1CCC(c2noc3ccsc23)CC1)N1CCC(c2ccccc2)C1` (racemic) [compound 831602], the Ki worked out at 19.6 nM. On the same count and under the same terms, with `O=C([C@@H]1C[C@H]1CN1CCC(c2nsc3cc(Br)ccc23)CC1)N1CCC(Cn2ccnc2)CC1` [A002329098] the figure was 345 nM; with `C[C@H]1CC[C@H](NC(=O)[C@@H]2C[C@H]2CN2CCN(c3nn(-c4ccc(F)cc4)c4ccsc34)CC2)CC1` [compound 832850], 0.264 nM.

`O=C(NCCCn1ccnc1)[C@@H]1C[C@H]1CN1CCN(c2nn(-c3ccc(F)cc3)c3ccsc23)CC1` [compound 832565]: the Ki came out at 1.45 nM. For the compound `CC(C)N1CCN(C(=O)[C@@H]2C[C@H]2CN2CCN(c3csc4cc(C(F)(F)F)ccc34)CC2)CC1` [compound 832833], the Ki worked out at 18.2 nM. Still for that read-out and setting: with `O=C(NCCCN1CCCCC1)[C@@H]1C[C@H]1CN1CCC(c2noc3c(C(F)(F)F)cccc23)CC1` [compound 832272] the figure was 145 nM; with `O=C(N[C@H]1CC[C@H](O)CC1)[C@@H]1C[C@H]1CN1CCC(c2noc3ccsc23)CC1` [compound 830251], 11.4 nM; with `O=C(NC1CCCC1)C1CC1CN1CCC(c2noc3ccsc23)CC1` (racemic) [compound 829592], 42.3 nM. Still for that read-out and setting: the result for `COc1ccc2c(c1)c(N1CCN(C[C@@H]3C[C@H]3C(=O)N3CCN(Cc4ccc(Cl)cc4)CC3)CC1)nn2C` [compound 833124] reads 26.8 nM; that for `O=C(C1CC1CN1CCC(c2noc3ccsc23)CC1)N1CCC(c2nc3ccccc3s2)CC1` (racemic) [compound 831702], 27.9 nM; that for `O=C(NC1CCN(Cc2ccc(F)cc2F)CC1)C1CC1CN1CCC(c2noc3ccsc23)CC1` (racemic) [compound 832344], 2.76 nM. On the same count and under the same terms, with `O=C(NC1CCN(Cc2ccc(Cl)cc2)CC1)[C@@H]1C[C@H]1CN1CCN(c2csc3cc(C(F)(F)F)ccc23)CC1` [compound 832737] the figure was 5.42 nM; with `O=C(NC1CCN(Cc2ccc(Oc3ccccc3)cc2)CC1)C1CC1CN1CCC(c2noc3ccsc23)CC1` (racemic) [compound 831820], 6.54 nM; with `Cn1nc(C2CCN(C[C@@H]3C[C@H]3C(=O)NCC3CCN(C(=O)OC(C)(C)C)CC3)CC2)c2sccc21` [A002438641], 62.8 nM.

For the compound `O=C(NCCCN1CCCC1=O)[C@@H]1C[C@H]1CN1CCC(c2noc3ccsc23)CC1` [compound 830832], the Ki was found to be 67.7 nM. As for `O=C(NCCCn1nnc2ccccc21)C1CC1CN1CCC(c2noc3ccsc23)CC1` (racemic) [compound 831687], the Ki was found to be 277 nM.

Regarding `O=C(C1CC1CN1CCC(c2noc3ccsc23)CC1)N1CCC(n2c(=O)[nH]c3ccccc32)CC1` (racemic) [compound 831737], the Ki was determined as 1.25 nM. Still for that read-out and setting: with `COc1cccc(C(=O)NNC(=O)C2CC2CN2CCC(c3noc4ccsc34)CC2)c1` (racemic) [compound 831811] the figure was 819 nM. The same measure, in the same setting: the result for `O=C([C@@H]1C[C@H]1CN1CCC(c2noc3c(C(F)(F)F)cccc23)CC1)N1CCCC(Cn2ccnc2)C1` (mixture of isomers) [compound 833911] reads 1.26 nM. Same read-out and setting: the result for `COc1ccc2c(c1)c(N1CCN(C[C@@H]3C[C@H]3C(=O)NC3CCN(Cc4ccc(Cl)cc4)CC3)CC1)nn2C` [compound 833834] reads 0.333 nM; that for `O=C(NCCCn1ccnc1)[C@@H]1C[C@H]1CN1CCN(c2nn(-c3ccc(C(F)(F)F)cc3)c3ccsc23)CC1` [compound 832634], 7.63 nM.

Regarding `C[C@H]1CC[C@H](NC(=O)[C@H]2C[C@@H]2CN2CCC(c3cc4ccccc4s3)CC2)CC1` [compound 831147], the Ki was found to be 40.8 nM.

The same assay, now with this note: read-out: d3Ki.
As for `C[C@H]1CC[C@H](NC(=O)CCCN2CCN(c3csc4cc(C(F)(F)F)ccc34)CC2)CC1` [compound 826804], the Ki came to 67.4 nM.

Values taken from US7772252B2, “Heterocyclic substituted carbonyl derivatives and their use as dopamine D3 receptor ligands” (Aventis Pharmaceuticals Inc., priority 2001, dated 2010).
